From patent publication US20260217712A1, “SOLID STATE FORMS OF MNK INHIBITORS” (4E Therapeutics, Inc., priority 2023, published 2026)
Entries after “also recorded” stand apart in the source; their conditions may differ.

Experiments:
Type in all cases: physicochemical
[1] = Static storage at 25° C./97% RH, XRPD and HPLC post storage; details: 8 days, listed as Lot B Sample 1
[2] = Thermodynamic solubility in simulated media and buffers; details: listed as Structure (I) Pattern 3
[3] = Heating for 24 h in a vacuum tray dryer, XRPD and HPLC; details: 75° C., reduced pressure
Method: A polymorphism study of Structure (I) was performed at 75° C., 100° C., 175° C., and 250° C. About 500 mg of Structure (I) Pattern 3 was heated at 75° C. for 24 h in a vacuum tray dryer (VTD) under reduced pressure. Obtained material after heating at 75° C. was analyzed for purity by HPLC and XPRD analysis. […] Additionally, about 500 mg of Structure (I) was heated at 75° C. for 24 h in a VTD under reduced pressure. After 24 h, material was cooled to 25-30° C. under inert atmosphere and analyzed for purity by HPLC and XRPD.
About 500 mg of Structure (I) was heated at 100° C. for 24 h in a VTD under reduced pressure. Obtained material after heating at 100° C. was analyzed for purity by HPLC and XPRD. […] Additionally, about 500 mg of Structure (I) was heated at 100° C. for 24 h in a VTD under reduced pressure. After 24 h material was cooled to 25-30° C. under inert atmosphere. Obtained material was analyzed for purity by HPLC and XPRD.
Obtained material after heating at 175° C. was analyzed for purity by HPLC and XPRD. […] After 24 h, material was cooled to 25-30° C. under inert atmosphere. Obtained material was analyzed for purity by HPLC and XPRD.
About 500 mg of Structure (I) was heated at 250° C. for 24 h in a VTD. Obtained material after heating at 250° C. was analyzed for purity by HPLC and XPRD.

[4] = Variable temperature XRPD (VT-XRPD)
Source text: (§1) XRPD diffractograms were collected on a PANalytical Empyrean diffractometer using Cu Kα radiation (45 kV, 40 mA, λ=1.544398 Å) in reflection geometry. The instrument was fitted with an Anton Paar CHC plus+ stage fitted with graphite/Kapton windows and equipped with air cooling coupled or a low vacuum pump system using an Edwards RV3 pump. A programmable divergence slit (in automatic mode), with a 10 mm fixed incident beam mask, Ni filter and 0.04 rad Soller slits were used on the incident beam. A PIXcel3D detector, placed on the diffracted beam, was fitted with a programmable anti-scatter slit (in automatic mode) and 0.04 rad Soller slits.
For variable temperature (VT-XRPD) experiments the samples were prepared and analyzed in an Anton Paar chromed sample holder. The sample chamber was under ambient atmosphere and a heating/cooling rate of 10° C./min was used with a 2 min isothermal hold before the measurement started. The measurement parameters are as per the standard screening data collection method (detailed above). Measurements were taken at the following temperatures: 25, 80, 170, 250, and 25° C.

[5] = Competitive slurries of Pattern 3 and Pattern 11, XRPD
Method: A solid mixture of Structure (I) Pattern 3 (from Lot B, 300 mg) and Pattern 11 (Sample 35-1, 300 mg) was mixed for 3 hours using a turbula mixer.
The solid mixture (30 mg) was suspended in solvent (dried with molecular sieves, 600 μL, 20 vol) and either stirred in the fridge, shaken at RT or 55° C. After 7 days, an aliquot of each suspension was analyzed by XRPD. Samples that were still a mixture of forms were placed back into fridge/shakers for a further 10 days and re-analyzed (results shown in Table 36).
Competitive slurry experiments at 55° C., along with one at 5° C., were repeated using a saturated solution as the solvent mixture to minimize dissolution that may have occurred at temperatures other than room temperature.
A saturated solution of THF/Water (9:1) (5 mL) with Structure (I) (from Lot B) was equilibrated at 55° C. overnight in a shaker. The solution was filtered using 0.45 μm nylon filter before use.
A solid mixture of Pattern 3 and Pattern 11 (30 mg) was suspended in the saturated solution (600 μL, 20 vol) and either stirred in the fridge (5° C.) or shaken at 55° C. After 1 day, aliquots of the suspensions were analyzed by XRPD. Both samples were placed back into fridge/shaker. After a total of 11 days, the samples were removed from fridge/shaker. Sample 38-2 was filtered before XRPD, Sample 38-1 was pipetted onto the XRPD holder and allowed to dry before analysis (solid passed through filter).

LogD = assay: LogD
[6] = Single crystal X-ray diffraction
Method: Crystals of Structure (I) Pattern 3 were obtained by evaporation of a THF:water 9:1 solution. A crystal of Structure (I) Pattern 3 of sufficient size and quality for analysis by single crystal X-ray diffraction was isolated from the sample with approximate dimensions 0.15×0.05×0.02 mm.
The single crystal X-ray structure of Structure (I) Pattern 3 was determined at 293(2) K and a summary of the structural data can be found in Table 41. The crystal structure of Structure (I) Pattern 3 was solved in the triclinic space group P-1 with the final R1 [I>2σ(I)]=4.36%. The structure was identified as depicted in FIG. 89 and FIG. 90 and the asymmetric unit found to contain two molecules of Structure (I).

XRPD under vacuum = details: for XRPD under vacuum: after 30 min under vacuum
Source text: as §1
For XRPD under vacuum the samples were prepared and analyzed in an Anton Paar chromed sample holder. The sample temperature was kept constant throughout at 25° C. The measurement parameters are as per the standard screening data collection method (detailed above). An initial measurement was taken before the vacuum was initiated and then subsequently at 10 min intervals. Data collection was stopped after three consecutive scans showing no change.

[7] = Static storage at 40° C./75% RH, XRPD and HPLC post storage; details: 7 days

Which “HPLC purity after storage at 25° C./97% RH (8 days)” value [1] does the source give for `Cc1cc(Nc2cc(N)ncn2)c(=O)n2c1C(=O)NC21CCC2(CC2)CC1` [Pattern 3] here?
The value was 98.5%.

And the “XRPD after storage at 25° C./97% RH (8 days)” value [1]?
Its value is “Unchanged by XRPD”.

And the “solubility in simulated fluids and buffers (in words)” value [2]?
The value was “poor”.

What about the “HPLC purity change after heating at 75° C.” value [3] of the same compound?
Its value is “no change”.

And the “XRPD form after heating at 75° C.” value [3]?
The value was “remained as Pattern 3”.

What about the “VT-XRPD form at 25-80° C.” value ([4]; 25-80° C.) of the same compound?
The value was 25-80° C.: Pattern 3.

What about the “VT-XRPD form at 175° C.” value [4] of the same compound?
Its value is “Pattern 10 was again observed”.

And the “VT-XRPD form at 175° C.” value ([4]; listed as Lot B Sample 1)?
The value was 175° C.: Pattern 10.

What about the “VT-XRPD form at 250° C.” value ([4]; 250° C., listed as Lot B Sample 1) of the same compound?
Its value is 250° C.: Patterns 10 and 11.

What about the “VT-XRPD form on cooling to 25° C.” value ([4]; cooling to 25° C.) of the same compound?
Its value is “Cooling to 25° C.: Patterns 11 and 3”.

What about the “form conversion in competitive slurries (in words)” value [5] of the same compound?
The value was “converted to Pattern 11”.

And the logD (LogD)?
The logD was 3.1.

And the “F(000)” value [6]?
Its value is 796.

What about the “Density (calculated)” value ([6]; 293(2) K) of the same compound?
The value was 1.339 Mg/m^3.

And the “Unit cell dimensions a” value ([6]; 293(2) K)?
Its value is “a = 10.1823(3) Å Å”.

And the “Unit cell dimensions b” value ([6]; 293(2) K)?
The value was “b = 12.1136(4) Å Å”.

What about the “Unit cell dimensions c” value ([6]; 293(2) K) of the same compound?
The value was “c = 16.6675(3) Å Å”.

And the “Unit cell dimensions α” value ([6]; 293(2) K)?
The value was “α = 72.512(2)°”.

And the “Unit cell dimensions β” value ([6]; 293(2) K)?
Its value is “β = 79.465(2)°”.

And the “Unit cell dimensions γ” value ([6]; 293(2) K)?
Its value is “γ = 72.661(3)°”.

And the Z ([6]; 293(2) K)?
Its Z is 4.

And the Crystal system ([6]; 293(2) K, wavelength 1.54184 Å)?
The Crystal system was “Triclinic”.

And the Crystal habit ([6]; crystal from THF:Water 9:1, evaporative)?
The Crystal habit was “Colorless lath”.

And the Volume ([6]; unit cell, 293(2) K)?
Its Volume is 1861.87(10) Å^3.

What about the Absorption coefficient ([6]; wavelength 1.54184 Å) of the same compound?
Its Absorption coefficient is 0.756 mm^−1.

And the XRPD under vacuum (XRPD under vacuum; listed as Lot B)?
Its XRPD under vacuum is “converted to Pattern 10”.

And the XRPD under vacuum (XRPD under vacuum; listed as Lot B Sample 1)?
Its XRPD under vacuum is “Conversion to Pattern 10 after 30 min”.

And the “XRPD after vacuum released” value (XRPD under vacuum; vacuum released for 30 min, ambient conditions, listed as Lot B Sample 1)?
Its value is “Conversion back to Pattern 3 after”.

And the “XRPD post storage at 40° C./75% RH” value ([7]; listed as 9-5)?
The value was “remained unchanged by XRPD; also recorded: Free Form Pattern 3”.

What about the “XRPD post storage at 40° C./75% RH” value ([7]; listed as Lot B Sample 1) of the same compound?
Its value is “Unchanged by XRPD”.
